The text below walks through data of article PMC7760315 (Biomolecules, 2020).

Assay [1] concerns the target T1, GlyRα1 (Homo sapiens, UniProt P23415).
T1 construct: expressed in transfected cells; host or cells: Xenopus laevis oocytes (cRNA injection)
T1 sequence (P23415 29-457): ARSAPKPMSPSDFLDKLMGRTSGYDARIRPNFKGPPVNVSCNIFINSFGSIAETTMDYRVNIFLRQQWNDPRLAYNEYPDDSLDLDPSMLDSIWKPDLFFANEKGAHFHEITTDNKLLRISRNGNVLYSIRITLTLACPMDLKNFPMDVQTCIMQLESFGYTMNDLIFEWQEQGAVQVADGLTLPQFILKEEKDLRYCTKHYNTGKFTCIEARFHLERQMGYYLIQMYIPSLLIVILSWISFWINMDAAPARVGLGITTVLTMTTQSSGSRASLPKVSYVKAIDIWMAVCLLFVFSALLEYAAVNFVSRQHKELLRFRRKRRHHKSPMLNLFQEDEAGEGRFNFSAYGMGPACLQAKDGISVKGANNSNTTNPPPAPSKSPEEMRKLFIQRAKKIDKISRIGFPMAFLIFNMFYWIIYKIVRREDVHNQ
As to the kind of experiment: Two-electrode voltage clamp, Xenopus laevis oocytes expressing GlyRα1 alone. Type of assay: cell-based. From the text: (§1) Human GlyT1b and GlyT2a WT cDNA were subcloned into the plasmid oocyte transcription vector (pOTV) and human GlyRα1, GlyRα3 and GlyRβ into pGEMHE. GlyR cDNA pGEMHE vectors were provided by Mary Collins at the University of Sydney (Sydney, Australia). Single point mutations were introduced into GlyRα1 using the Q5 site-directed mutagenesis kit (New England Biolabs (Genesearch), Arundel, Australia) with oligonucleotide primers (Merck, Sydney, Australia) containing the desired mutations. The amplified cDNA/pOTV or cDNA/pGEMHE product was then transformed in E. coli cells, and subsequently purified using the PureLink Quick Plasmid Miniprep Kit (Invitrogen by Life Technologies, Löhne, Germany), and sequenced by the Australian Genome Research Facility (Sydney, Australia). The purified plasmid DNA was linearised via the restriction enzyme, SpeI (New England Biolabs (Genesearch), Arundel, Australia) for GlyT1b and GlyT2a (henceforth referred to as GlyT1 and GlyT2 respectively) and NheI (New England Biolabs (Genesearch)) for GlyRα1, GlyRα3 and GlyRβ. Complementary RNAs were synthesised using the mMESAGE mMACHINE T7 kit (Ambion, Austin, TX, USA).
(§2) All work involving the use of animals was performed in accordance with the Australian Code of Practice for the Care and Use of Animals for Scientific Purposes and approved by the University of Sydney Animal Ethics Committee (Approval numbers 2016/970 and 2020/1704). […] The oocytes were then stored in frog Ringer’s solution (96 mM NaCl, 2 mM KCl, 1 mM MgCl2, 1.8 mM CaCl2, 5 mM HEPES, pH 7.5) which was supplemented with 2.5 mM sodium pyruvate, 0.5 mM theophylline, 50 μg/mL gentamicin and […] tetracycline. The oocytes were stored at 18 °C for 3–5 days, until transporter and receptor expression were adequate for measurement using the two-electrode voltage clamp technique.
(§3) GlyT1, GlyT2, GlyRα1, GlyRα3, GlyRα1β and GlyRα3β are electrogenic, allowing activation to be measured via the two-electrode voltage clamp technique. Oocytes were voltage clamped at −60 mV, and whole-cell currents generated by the substrate were recorded with a Geneclamp 500 amplifier (Axon Instruments, Foster City, CA, USA), digitised by a Powerlab 2/20 chart recorder (ADInstruments, Sydney, Australia). LabChart version 8 software (ADInstruments, Sydney, Australia) was used to visualise and process current traces. Recordings were performed in frog Ringer’s solution, except for low Na^+ experiments where Na^+ was replaced with choline. Oocytes were placed in an oval-shaped bath with a volume of 0.3 mL, with laminar flow around the oocyte at a rate of 12 mL min^−1 under gravity feed.
(§4) Varying concentrations of substrate or agonist were applied to cells in ND96.
(§5) Flow of the solution was stopped until the current plateaued, by manually closing a three-way valve on one end of the bath such that the solution in the bath was static and is referred to henceforth as ‘stop-flow’.
In general terms: In two-electrode clamp one electrode senses voltage and the other passes current.

Assay [2] relates to GlyT2. To be noted: cited from earlier work; for GlyT2 Activity: % Inhibition (1 µM): 1 µM lipid, inhibition of glycine transport.
Assay [3] has as its system GlyRα1. To be noted: cited from earlier work; for GlyRα1 Potentiation at EC5 (%): % stimulation of glycine EC5 caused by 1 µM lipid.
Another assay relates to GlyT2-GFP. The settings on record: read-out: Glycine EC50; tagged transporter alone.
For a further assay, the system named is GlyRα1-mCherry. To be noted: read-out: Glycine EC50; tagged receptor alone.
The next assay has as its system GlyRα1/GlyT2. As to the kind of experiment: Two-electrode voltage clamp, oocytes co-expressing GlyRα1/GlyT2. Type of assay: cell-based, human.
Excerpt: as §1, §2, §3
Varying concentrations of substrate or agonist were applied to cells in ND96. […]

The test system of assay [4] is GlyRα1. The settings on record: cited from earlier work.
In another assay the target is GlyRα3β/GlyT2 (Homo sapiens, UniProt O75311+P48167). The settings on record: read-out: Fast-Flow Glycine EC50.
Chain of GlyRα3β/GlyT2 (O75311 34-464): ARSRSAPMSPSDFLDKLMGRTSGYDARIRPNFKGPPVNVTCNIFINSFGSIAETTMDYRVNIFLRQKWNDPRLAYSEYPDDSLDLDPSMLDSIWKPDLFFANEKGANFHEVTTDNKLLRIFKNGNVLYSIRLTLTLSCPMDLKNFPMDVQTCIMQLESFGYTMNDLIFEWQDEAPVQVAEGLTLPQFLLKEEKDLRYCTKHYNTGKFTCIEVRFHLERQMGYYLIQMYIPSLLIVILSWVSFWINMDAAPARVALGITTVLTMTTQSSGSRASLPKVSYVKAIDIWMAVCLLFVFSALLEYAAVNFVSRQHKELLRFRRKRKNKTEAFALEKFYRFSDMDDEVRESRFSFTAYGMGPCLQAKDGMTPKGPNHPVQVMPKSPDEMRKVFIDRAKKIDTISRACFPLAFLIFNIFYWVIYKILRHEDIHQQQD
Chain of GlyRα3β/GlyT2 (P48167 23-497): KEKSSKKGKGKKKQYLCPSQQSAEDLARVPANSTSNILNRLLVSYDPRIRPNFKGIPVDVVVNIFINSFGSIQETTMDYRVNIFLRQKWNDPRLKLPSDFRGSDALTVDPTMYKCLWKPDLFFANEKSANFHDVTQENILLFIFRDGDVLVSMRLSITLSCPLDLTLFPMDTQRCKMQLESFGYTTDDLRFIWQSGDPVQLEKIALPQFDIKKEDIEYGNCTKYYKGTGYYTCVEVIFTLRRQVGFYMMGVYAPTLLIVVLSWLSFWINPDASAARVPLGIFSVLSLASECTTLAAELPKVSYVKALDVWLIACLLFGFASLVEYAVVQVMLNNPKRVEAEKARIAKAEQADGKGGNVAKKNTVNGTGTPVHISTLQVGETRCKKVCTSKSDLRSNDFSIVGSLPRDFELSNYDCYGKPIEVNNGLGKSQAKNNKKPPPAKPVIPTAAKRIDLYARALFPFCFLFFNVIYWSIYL
A further assay deals with GlyRα3β/GlyT1 (Homo sapiens, UniProt O75311+P48167). To be noted: read-out: Fast-Flow Glycine EC50.
Chain of GlyRα3β/GlyT1 (O75311 34-464): as the sequence (O75311 34-464) above
Chain of GlyRα3β/GlyT1 (P48167 23-497): as the sequence (P48167 23-497) above
The target in another assay is GlyRα3 (Homo sapiens, UniProt O75311). The settings on record: read-out: Fast-Flow Glycine EC50.
Chain of GlyRα3 (O75311 34-464): as the sequence (O75311 34-464) above
Excerpt: as §1, §2, §3, §4

A further assay has as its target GlyRα3/GlyT1 (Homo sapiens, UniProt O75311). To be noted: read-out: Fast-Flow Glycine EC50.
Excerpt: as §1, §2, §3, §4

In assay [5] the target is GlyT2 (Homo sapiens, UniProt Q9Y345). The settings on record: read-out: glycine EC50 (transport current); GlyT2 expressed alone.
Chain of GlyT2 (Homo sapiens, UniProt Q9Y345) (Q9Y345 whole entry): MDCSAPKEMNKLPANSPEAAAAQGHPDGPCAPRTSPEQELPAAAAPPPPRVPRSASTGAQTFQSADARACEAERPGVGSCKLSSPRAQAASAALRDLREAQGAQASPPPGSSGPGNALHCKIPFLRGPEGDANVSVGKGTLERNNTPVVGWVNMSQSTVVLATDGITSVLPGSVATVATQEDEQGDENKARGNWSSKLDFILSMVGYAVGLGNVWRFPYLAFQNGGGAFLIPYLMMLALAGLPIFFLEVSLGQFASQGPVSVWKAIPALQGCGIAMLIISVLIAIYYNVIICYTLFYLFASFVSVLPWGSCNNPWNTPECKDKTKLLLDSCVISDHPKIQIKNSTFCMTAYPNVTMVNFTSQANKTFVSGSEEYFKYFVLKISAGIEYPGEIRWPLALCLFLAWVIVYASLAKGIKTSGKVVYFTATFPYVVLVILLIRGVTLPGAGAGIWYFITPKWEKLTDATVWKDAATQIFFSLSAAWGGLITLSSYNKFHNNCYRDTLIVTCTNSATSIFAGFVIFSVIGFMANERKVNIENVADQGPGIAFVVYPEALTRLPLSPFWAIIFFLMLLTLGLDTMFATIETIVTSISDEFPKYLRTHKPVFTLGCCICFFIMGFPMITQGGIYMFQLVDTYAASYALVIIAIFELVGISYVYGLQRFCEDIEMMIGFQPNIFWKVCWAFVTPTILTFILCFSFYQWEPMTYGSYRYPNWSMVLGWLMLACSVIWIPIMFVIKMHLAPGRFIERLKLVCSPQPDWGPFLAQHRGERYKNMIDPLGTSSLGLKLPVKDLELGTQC
Excerpt: as §1, §2, §3, §4

Assay [6] addresses GlyT1 (Homo sapiens, UniProt P48067). To be noted: read-out: glycine EC50 (transport current); GlyT1 expressed alone.
Excerpt: as §1, §2, §3, §4

The target of another assay is GlyRα3/GlyT2 (Homo sapiens, UniProt O75311). To be noted: read-out: Fast-Flow Glycine EC50.
Chain of GlyRα3/GlyT2 (O75311 34-464): as the sequence (O75311 34-464) above
Excerpt: as §1, §2, §3, §4

Assay [7] concerns GlyT1. The settings on record: cited from earlier work.
Assay [8] deals with T2, GlyRα1/GlyT1 (Homo sapiens, UniProt P23415).
T2 construct: expressed in transfected cells; host or cells: Xenopus laevis oocytes (cRNA co-injection)
T2 sequence (P23415 29-457): T1 sequence (P23415 29-457)
As to the kind of experiment: Two-electrode voltage clamp, oocytes co-expressing GlyRα1/GlyT1. Type of assay: cell-based. To be noted: 1 µM inhibitor; fast-flow.
Excerpt: as §1, §2, §3, §4, §5

Assay [9] has as its target T3, GlyRα1/GlyT1 (Homo sapiens, UniProt P48067).
T3 construct: expressed in transfected cells; host or cells: Xenopus laevis oocytes (cRNA co-injection)
T3 sequence (P48067 1-652 isoform P48067-3): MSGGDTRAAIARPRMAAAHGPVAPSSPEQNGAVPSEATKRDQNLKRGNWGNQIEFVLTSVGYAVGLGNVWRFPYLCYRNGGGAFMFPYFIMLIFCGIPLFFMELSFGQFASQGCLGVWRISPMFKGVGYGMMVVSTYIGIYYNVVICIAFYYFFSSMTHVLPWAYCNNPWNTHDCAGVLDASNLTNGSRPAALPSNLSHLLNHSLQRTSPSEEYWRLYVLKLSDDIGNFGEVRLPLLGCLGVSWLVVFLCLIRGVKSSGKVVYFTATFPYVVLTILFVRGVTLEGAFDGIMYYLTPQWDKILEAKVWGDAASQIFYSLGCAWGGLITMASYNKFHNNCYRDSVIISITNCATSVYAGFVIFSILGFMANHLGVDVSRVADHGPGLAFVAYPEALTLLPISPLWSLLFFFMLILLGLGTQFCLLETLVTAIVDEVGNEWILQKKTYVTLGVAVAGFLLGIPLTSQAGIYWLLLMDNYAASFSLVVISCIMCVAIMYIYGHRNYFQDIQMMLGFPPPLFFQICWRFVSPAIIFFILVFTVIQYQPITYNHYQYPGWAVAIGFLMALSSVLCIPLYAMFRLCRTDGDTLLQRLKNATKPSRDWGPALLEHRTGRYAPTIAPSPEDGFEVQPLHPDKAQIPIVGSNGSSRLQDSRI
Described as above. Type of assay: cell-based. To be noted: 1 μM ALX-5407; 1 mM Na+ buffer.
Excerpt: as §1, §2, §3, §4, §5

Where “and” joins values, the source holds several entries; their conditions need not be identical. Equal values may be shown once. Read-outs that look alike come from different tables or passages of the source.

Chain of GlyRα3/GlyT1 (O75311 34-464): as the sequence (O75311 34-464) above
Description for GlyRα1-mCherry: (§6) The oocytes were then stored in frog Ringer’s solution (96 mM NaCl, 2 mM KCl, 1 mM MgCl2, 1.8 mM CaCl2, 5 mM HEPES, pH 7.5) which was supplemented with 2.5 mM sodium pyruvate, 0.5 mM theophylline, 50 μg/mL gentamicin and 100 μM mL^−1 tetracycline. The oocytes were stored at 18 °C for 3–5 days, until transporter and receptor expression were adequate for measurement using the two-electrode voltage clamp technique.
Excerpt for GlyRα3β/GlyT1: (§7) Human GlyT1b and GlyT2a WT cDNA were subcloned into the plasmid oocyte transcription vector (pOTV) and human GlyRα1, GlyRα3 and GlyRβ into pGEMHE. […] Single point mutations were introduced into GlyRα1 using the Q5 site-directed mutagenesis kit (New England Biolabs (Genesearch), Arundel, Australia) with oligonucleotide primers (Merck, Sydney, Australia) containing the desired mutations. […] The purified plasmid DNA was linearised via the restriction enzyme, SpeI (New England Biolabs (Genesearch), Arundel, Australia) for GlyT1b and GlyT2a (henceforth referred to as GlyT1 and GlyT2 respectively) and NheI (New England Biolabs (Genesearch)) for GlyRα1, GlyRα3 and GlyRβ. Complementary RNAs were synthesised using the mMESAGE mMACHINE T7 kit (Ambion, Austin, TX, USA). […]
(§8) GlyT1, GlyT2, GlyRα1, GlyRα3, GlyRα1β and GlyRα3β are electrogenic, allowing activation to be measured via the two-electrode voltage clamp technique. Oocytes were voltage clamped at −60 mV, and whole-cell currents generated by the substrate were recorded with a Geneclamp 500 amplifier (Axon Instruments, Foster City, CA, USA), digitised by a Powerlab 2/20 chart recorder (ADInstruments, Sydney, Australia). […]
Excerpt for GlyRα3β/GlyT2: as §7, §8
Description for GlyT2-GFP: as §6

As to `CCCCCCCC/C=C\CCCCCCCC(=O)NCC(=O)O` [C18-cis-ω9-glycine], at GlyRα1 [1] (1 µM lipid, fast-flow), the “nH of glycine dose-response in the presence of lipid” value was 2.4 ± 0.2 ns. Moreover, the “GlyT2 Activity: % Inhibition (1 µM)” value is 50.1 ± 0.06% in the assay on GlyT2 [2] and 89.6 ± 0.01% in the assay with GlyT2 [2] (listed as 18-cis-ω9-glycine). In the assay with GlyT2 [2] (inhibition of glycine transport by GlyT2), the IC50 is 0.031 µM. In the assay on GlyT2 [2] (maximal level of inhibition observed), the “GlyT2 Activity: Max inhibition (%)” value is reported as 95.0%. The “GlyRα1 Potentiation at EC5 (%)” value was 84.7 ± 14.0% with GlyRα1 [3] and 84.7 ± 14.0 (8) % in the assay with GlyRα1 [3] (listed as 18-cis-ω9-glycine). Moreover, in the assay on GlyRα1 [3] (dose-dependent), the “effect on Imax of GlyRα1” value is recorded as “increases”. Further, in the assay with GlyRα1 [3] (dose-dependent), the “effect on glycine EC50 of GlyRα1” value was “decreases”.

With `NCC(=O)O` [glycine], the EC50 in the assay with GlyT2-GFP is 28.1 µM; in the assay with GlyRα1-mCherry, 15.7 µM; in the assay with GlyRα1/GlyT2 (read-out: Fast-Flow Glycine EC50), 30.9 µM and 41.6 µM and 34.1 µM and 27.9 µM and 27.3 µM; in the assay on GlyRα1/GlyT2 (read-out: Glycine EC50), 23 µM; with GlyRα1/GlyT2 (read-out: Stop-Flow Glycine EC50), 83.1 µM; in the assay on GlyRα1 [4] (read-out: glycine EC50, ref 51) it was 24 µM. Further, the EC50 with GlyRα1 [4] (read-out: glycine EC50, ref 52) was 42 µM; with GlyRα1 [4] (read-out: glycine EC50 values in oocytes, variable with maximal current) it was 20 to 280 µM; on GlyRα3β/GlyT2, 224 µM; on GlyRα3β/GlyT1, 220 µM; on GlyRα3 it was 64.8 µM; on GlyRα3/GlyT1, 154 µM. Besides, the EC50 on GlyT2 [5] is 21.8 µM and ~30 µM; on GlyT1 [6] it was approximately 35 µM; on GlyRα3/GlyT2, 160 µM. For the same molecule, the “Peak Current” value on GlyRα1 [1] is listed as 740.6 ± 105.9 nA.

On to `CN(CC[C@@H](Oc1ccc(-c2ccccc2)cc1)c1ccc(F)cc1)CC(=O)O` [ALX-5407], for which the IC50 in the assay on GlyT1 [7] is 0.003 µM. Also, on GlyRα1/GlyT1 [8], the “nH of glycine dose-response in the presence of GlyT inhibitor” value is on record as 2.0 ± 0.2 ns. Moreover, the “stopped flow increase in current amplitude (reverse glycine transport / efflux)” value on GlyRα1/GlyT1 [9] is “prevents”.

The term IC50 denotes the midpoint of a concentration-inhibition curve. Usually EC50 stands for the concentration that produces a half-maximal response.
